The source of these data is paper PMC7294809, “Discovery of an Allosteric Binding Site in Kinetoplastid Methionyl-tRNA Synthetase” (ACS Infectious Diseases, 2020).

In series [1] the target is T1, LdMetRS (Leishmania donovani, UniProt A0A3Q8IBX2). Briefly: LdMetRS BIOMOL Green biochemical assay, 10-point dose response. The note with it: for Emax: read-out: LdMetRS Maximum % Inhibition Plateau.
Series [2] has as its target T2, TcMetRS (Trypanosoma cruzi, UniProt Q4D6H2). Put plainly: TcMetRS BIOMOL Green biochemical assay, 10-point dose response.
The next series can be described thus: CHI LogD measurement. The class given is physicochemical. Particulars: chromatographic hydrophobicity index. As for the experimental part: CHI LogD measurements were performed as described elsewhere.[29] cLogP measurements were calculated using StarDrop (Optibrium).
The nature of series [3]: Aqueous solubility, filtration-based method. The format is physicochemical. The note with it: aqueous buffer, kinetic from dmso stock; phosphate-buffered saline pH 7.4, 24 h, 25 °C. As for the experimental part: Solubility was assessed using a filtration-based method. Test compounds were dissolved in DMSO to give 10 mM solutions. Five microliters of the 10 mM solution was added to 195 μL of phosphate-buffered saline at pH 7.4 and mixed for 24 h (rotary mixing, 900 rpm, 25 °C) excluding light. After mixing, the samples were filtered to remove any undissolved material using a Millipore Multiscreen HTS filter. The filtrate was analyzed for dissolved drug compounds using UHPLC.

For series [4], the target named is T1, LdMetRS. Put plainly: LdMetRS mode of inhibition studies. Particulars: for Ki / h (inhibitor Hill slope) / β (fraction of activity remaining) / Vmax / n (substrate Hill slope) / Ks: LdMetRS; for Ki: fit to eq 7, ± SE of fit; for h (inhibitor Hill slope) / β (fraction of activity remaining) / Vmax / n (substrate Hill slope) / Ks / mode of inhibition, LdMetRS: eq 7; for Vmax: global fit parameter; for n (substrate Hill slope) / Ks: global fit; for Ks: substrate dissociation constant; for mode of inhibition, LdMetRS: best fit by F-test. The format is biochemical. The text has this:
Subsequent full mode of inhibition studies with compounds from the MetRS02 series were more challenging due to the partial inhibition profiles of some compounds resulting in poor global fits to the standard competitive, uncompetitive, and noncompetitive inhibition models (eqs 3, 4, and 5, respectively). In addition, during the enzymatic characterization of methionine binding to LdMetRS, a Hill slope of <1 was obtained (and was hypothesized to be due to conformational selection).[6] This low Hill slope is also not factored into the standard inhibition models described (eqs 3–5). New models with additional parameters to account for the partial inhibition and low methionine Hill slope were therefore required (eqs 6 and 7). Using these modified equations, the mode of inhibition of compound 27 was carried out by testing LdMetRS enzyme activity under varying substrate concentrations at various inhibitor concentrations (Figure 5). The cooperative, noncompetitive, partial inhibition model (eq 7) was confirmed as the best fit (using F-test analyses), with a noncompetitive mode of inhibition consistent with binding in an allosteric binding pocket. The returned fit parameters are shown in Table 4 and are presented with the standard error (SE) of the fit to eq 7.
(§1) Using GraFit v6.0 (Erithacus Software), each data set was globally fitted to standard competitive, uncompetitive, and noncompetitive inhibition models (eqs 3–5).
(§2) Equation 5 (noncompetitive inhibition model): [drawing 5] 5 On the basis of poor data fits to the above models, partial inhibition and cooperativity parameters were introduced into the uncompetitive and noncompetitive models as previously described by Skovpen et al.[30],[31] Mode of inhibition data were globally fitted to these modified equations (eqs 6 and 7).
(§3) Equation 7 (cooperative, noncompetitive, partial inhibition model): [drawing 7] 7 v is the velocity, Vmax is the maximum velocity, [S] is the substrate concentration, [I] is the inhibitor concentration, Ki is the inhibitor constant, Ks is the substrate dissociation constant, n is the substrate Hill slope, h is the inhibitor Hill slope, and β is the proportionality constant (fraction of activity remaining when the enzyme is fully saturated with inhibitor).
(§4) If more than one model appeared possible, then data were fitted to both and examined for significance using the F-test function in GraFit.

In series [5] the target is T2, TcMetRS. Put plainly: TcMetRS mode of inhibition studies. The class given is biochemical. The note with it: for Ki / h (inhibitor Hill slope) / β (fraction of activity remaining) / Vmax / n (substrate Hill slope) / Ks: TcMetRS; for Ki: fit to eq 7, ± SE of fit; for Vmax: global fit parameter; for n (substrate Hill slope) / Ks: global fit; for Ks: substrate dissociation constant.
From the text: It was therefore feasible to perform TcMetRS mode inhibition studies with this compound. These studies, carried out as previously described for LdMetRS, confirm a best fit to the same partial, cooperative, noncompetitive inhibition model (eq 7; Supporting Information Figure 6 and Table 4).
as §1, §2, §3, §4

In series [6] the target is T1, LdMetRS. The note with it: read-out: LdMetRS Km app; cited from earlier work.
The mark [7] stands for this setting: LdMetRS pIC50, 50 μM methionine, 100 μM ATP, 50 nM LdMetRS, pIC50 = −log IC50 (M).

≈ marks a conversion by molar mass, not a printed value. Marks after values point to notes of the source that are not given here. Some results are limits rather than exact numbers.

T1 sequence (A0A3Q8IBX2 entry or part of it): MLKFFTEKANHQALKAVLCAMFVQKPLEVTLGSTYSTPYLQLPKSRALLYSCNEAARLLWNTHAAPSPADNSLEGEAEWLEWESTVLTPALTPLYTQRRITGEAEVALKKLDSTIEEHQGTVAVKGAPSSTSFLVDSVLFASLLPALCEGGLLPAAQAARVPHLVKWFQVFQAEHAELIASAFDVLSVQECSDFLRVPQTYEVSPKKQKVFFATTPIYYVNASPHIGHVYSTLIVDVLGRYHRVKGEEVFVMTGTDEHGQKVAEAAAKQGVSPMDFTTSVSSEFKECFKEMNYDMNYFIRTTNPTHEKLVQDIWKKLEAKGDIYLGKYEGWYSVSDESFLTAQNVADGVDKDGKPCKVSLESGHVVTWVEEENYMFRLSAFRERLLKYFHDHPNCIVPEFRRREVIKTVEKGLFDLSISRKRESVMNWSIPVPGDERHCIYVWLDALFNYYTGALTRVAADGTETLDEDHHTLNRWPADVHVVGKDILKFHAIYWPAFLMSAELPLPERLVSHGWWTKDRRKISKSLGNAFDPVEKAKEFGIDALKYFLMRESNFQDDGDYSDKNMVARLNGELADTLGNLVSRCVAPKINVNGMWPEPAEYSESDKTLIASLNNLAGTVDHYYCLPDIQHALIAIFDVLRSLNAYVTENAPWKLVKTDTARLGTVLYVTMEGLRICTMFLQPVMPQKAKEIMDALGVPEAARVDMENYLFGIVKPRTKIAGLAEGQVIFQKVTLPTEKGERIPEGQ
T2 sequence (Q4D6H2 entry or part of it): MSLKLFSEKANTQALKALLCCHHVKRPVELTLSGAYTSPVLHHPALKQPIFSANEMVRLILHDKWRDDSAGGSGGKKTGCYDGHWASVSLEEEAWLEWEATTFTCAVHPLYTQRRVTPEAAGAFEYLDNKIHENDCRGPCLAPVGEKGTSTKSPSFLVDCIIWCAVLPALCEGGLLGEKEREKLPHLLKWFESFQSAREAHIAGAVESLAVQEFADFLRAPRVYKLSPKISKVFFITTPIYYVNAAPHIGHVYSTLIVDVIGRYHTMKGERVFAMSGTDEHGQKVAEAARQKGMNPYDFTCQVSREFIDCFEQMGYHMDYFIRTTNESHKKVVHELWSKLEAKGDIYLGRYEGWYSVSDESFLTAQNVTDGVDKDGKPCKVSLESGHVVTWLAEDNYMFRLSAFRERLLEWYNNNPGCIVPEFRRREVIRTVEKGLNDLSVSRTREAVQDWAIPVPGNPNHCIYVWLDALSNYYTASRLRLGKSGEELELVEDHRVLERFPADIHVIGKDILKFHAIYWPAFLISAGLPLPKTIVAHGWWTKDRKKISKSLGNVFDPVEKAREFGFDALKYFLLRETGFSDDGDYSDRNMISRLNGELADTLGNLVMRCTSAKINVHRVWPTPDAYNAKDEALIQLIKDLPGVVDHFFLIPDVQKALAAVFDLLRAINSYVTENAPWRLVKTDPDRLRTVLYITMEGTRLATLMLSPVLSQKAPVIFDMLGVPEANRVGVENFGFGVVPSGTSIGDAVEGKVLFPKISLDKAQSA

Take `CN(C)c1nc(Nc2ccc(F)c(F)c2)nc2c1cnn2C` [Compound 19]: the IC50 is 1e-06 M against LdMetRS [1] (setting [7]) and above 100 µM on TcMetRS [2]. Also, the Emax on LdMetRS [1] was 48.9%. In addition, in “CHI LogD measurement”, the chromatographic logD was 2.88. The solubility at 24 h in series [3] worked out at 4.8 µM (≈ 1.46 µg/mL). In addition, the Ki at LdMetRS [4] (varied substrate ATP) is 1.21 ± 0.06 µM; at LdMetRS [4] (varied substrate methionine), 1.22 ± 0.06 µM; on TcMetRS [5] (varied substrate ATP) it was “inactive”; on TcMetRS [5] (varied substrate methionine), “inactive”. Further, the “h (inhibitor Hill slope)” value is 1.75 ± 0.12 at LdMetRS [4] (substrate ATP) and 1.65 ± 0.11 on LdMetRS [4] (substrate methionine). Besides, the “β (fraction of activity remaining)” value was determined as 0.55 ± 0.01 on LdMetRS [4] (substrate ATP) and 0.57 ± 0.01 on LdMetRS [4] (substrate methionine). In addition, the Vmax was determined as 0.292 ± 0.004 μM Piformed/min on LdMetRS [4] (substrate ATP) and 0.359 ± 0.009 μM Piformed/min at LdMetRS [4] (substrate methionine). The “n (substrate Hill slope)” value on LdMetRS [4] (substrate ATP) was 1.03 ± 0.03 ^b; at LdMetRS [4] (substrate methionine), 0.53 ± 0.02. For the same molecule, the figures for the Ks at LdMetRS [4] (substrate ATP) and on LdMetRS [4] (substrate methionine) were 21.0 ± 0.74 µM and 313 ± 35 µM, respectively. Also, the “mode of inhibition, LdMetRS” value at LdMetRS [4] is “noncompetitive”.

On to `COC(=O)CNc1nc(Nc2ccc(F)c(F)c2)nc2c1cnn2C` [Compound 27], for which the IC50 was 1.41e-06 M at LdMetRS [1] (LdMetRS pIC50, 50 µM ATP and 50 µM methionine); 1.26e-06 M against LdMetRS [1] (setting [7]); 1.41e-06 M at LdMetRS [1] (LdMetRS pIC50, both substrate concentrations increased to 500 µM); above 100 µM on TcMetRS [2]. At LdMetRS [1] (methionine and ATP increased from 50 μM each to 500 μM, preliminary data), the “IC50 shift on increasing substrate concentrations” value is “no IC50 shifts”. Also, the results for the Emax at LdMetRS [1] and at TcMetRS [2] (read-out: TcMetRS Maximum % Inhibition) were 92.9% and 44.2 ± 6.5%, respectively. Further, the chromatographic logD in “CHI LogD measurement” was 2.17. Also, the solubility at 24 h in series [3] worked out at 5.5 µM (≈ 1.92 µg/mL). In addition, the inhibition constant (Ki) at LdMetRS [4] (varied substrate ATP) came out at 1.58 ± 0.04 µM; on LdMetRS [4] (varied substrate methionine), 2.06 ± 0.04 µM; at TcMetRS [5] (Ki, varied substrate ATP), 11.3 ± 1.2 µM; on TcMetRS [5] (Ki, varied substrate methionine), 10.8 ± 0.7 µM. The “h (inhibitor Hill slope)” value at LdMetRS [4] (substrate ATP) was determined as 1.10 ± 0.02; at LdMetRS [4] (substrate methionine) it was 1.05 ± 0.02; at TcMetRS [5] (substrate ATP, eq 7) it was 1.27 ± 0.14; on TcMetRS [5] (substrate methionine, eq 7) it was 1.48 ± 0.11. In addition, the “β (fraction of activity remaining)” value is 0.027 ± 0.005 at LdMetRS [4] (substrate ATP); 0.060 ± 0.005 at LdMetRS [4] (substrate methionine); 0.48 ± 0.02 on TcMetRS [5] (substrate ATP, eq 7); 0.65 ± 0.01 at TcMetRS [5] (substrate methionine, eq 7). Besides, the Vmax at LdMetRS [4] (substrate ATP) was 0.324 ± 0.004 μM Piformed/min; on LdMetRS [4] (substrate methionine) it was 0.388 ± 0.009 μM Piformed/min; on TcMetRS [5] (substrate ATP, eq 7), 0.287 ± 0.006 μM Piformed/min; on TcMetRS [5] (substrate methionine, eq 7) it was 0.429 ± 0.016 μM Piformed/min. The “n (substrate Hill slope)” value is 1.07 ± 0.02 ^b at LdMetRS [4] (substrate ATP); 0.50 ± 0.01 on LdMetRS [4] (substrate methionine); 1.07 ± 0.03 ^b on TcMetRS [5] (substrate ATP, eq 7); 0.42 ± 0.01 at TcMetRS [5] (substrate methionine, eq 7). For the same molecule, the Ks on LdMetRS [4] (substrate ATP) turned out to be 21.1 ± 0.6 µM; on LdMetRS [4] (substrate methionine), 327 ± 35 µM; at TcMetRS [5] (substrate ATP, eq 7) it was 40.5 ± 2.0 µM; at TcMetRS [5] (substrate methionine, eq 7), 1340 ± 237 µM. On LdMetRS [4], the “mode of inhibition, LdMetRS” value is listed as “noncompetitive”. Further, on TcMetRS [5] (Ki from mode of inhibition studies, Table 4), the “fold difference in Ki, TcMetRS versus LdMetRS” value was 5–7 fold. Besides, at TcMetRS [5] (best fit, eq 7), the “mode of inhibition, TcMetRS” value is reported as “noncompetitive”.

Consider `CSCC[C@H](N)C(=O)O` [methionine], for which, on LdMetRS [6], the Km is 173 µM.
